Results reported in PubChem BioAssay AID1963870 (Molecular Pharmacology Branch, DTP, NCI, 2024).
Values joined by “and” are separate entries in the source; they are usually repeats but may differ in a detail not shown here. Identical values can stand only once.

Tested on: 292921-168-R-J2-PDC KRAS tumor spheroid viability
Assay: Anticancer human tumor 292921-168-R-J2-PDC patient-derived pancreatic carcinoma cell line growth inhibition [KRAS2]
Conditions: spheroids with HUVEC and MSC; for viability, T/C: stronger effect = lower value
Method in brief: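 KRAS-mutant tumor cells were grown as spheroids with HUVEC endothelial cells and human MSCs as stroma. Targeted agents were tested alone and with KRAS pathway inhibitors. Doses started at or near clinical Cmax, or 10 microM, descending half-log.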

[1] = curve of first compound, second compound 0.1 µM
[2] = curve of first compound, second compound 0.316 µM
[3] = curve of first compound, second compound 1 µM
[4] = curve of first compound, second compound 3.16 µM
[5] = curve of first compound, second compound 10 µM
[6] = second compound 0.1 µM, first compound 0.0316 µM
[7] = second compound 0.1 µM, first compound 0.1 µM
[8] = second compound 0.1 µM, first compound 0.316 µM
[9] = second compound 0.1 µM, first compound 1 µM
[10] = second compound 0.316 µM, first compound 0.0316 µM
[11] = second compound 0.316 µM, first compound 0.1 µM
[12] = second compound 0.316 µM, first compound 0.316 µM
[13] = second compound 0.316 µM, first compound 1 µM
[14] = second compound 1 µM, first compound 0.0316 µM
[15] = second compound 1 µM, first compound 0.1 µM
[16] = second compound 1 µM, first compound 0.316 µM
[17] = second compound 1 µM, first compound 1 µM
[18] = second compound 3.16 µM, first compound 0.0316 µM
[19] = second compound 3.16 µM, first compound 0.1 µM
[20] = second compound 3.16 µM, first compound 0.316 µM
[21] = second compound 3.16 µM, first compound 1 µM
[22] = second compound 10 µM, first compound 0.0316 µM
[23] = second compound 10 µM, first compound 0.1 µM
[24] = second compound 10 µM, first compound 0.316 µM
[25] = second compound 10 µM, first compound 1 µM
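Further: drug exposure lasted seven days after spheroids formed for three days.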
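Wherever viability, T/C is given: percent of DMSO vehicle control viability which is 100%.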

SMILES	IC50 [1] [nM]	IC50 [2] [nM]	IC50 [3] [nM]	IC50 [4] [nM]	IC50 [5] [nM]	viability, T/C [6] [%]	viability, T/C [7] [%]	viability, T/C [8] [%]	viability, T/C [9] [%]	viability, T/C [10] [%]	viability, T/C [11] [%]	viability, T/C [12] [%]	viability, T/C [13] [%]	viability, T/C [14] [%]	viability, T/C [15] [%]	viability, T/C [16] [%]	viability, T/C [17] [%]	viability, T/C [18] [%]	viability, T/C [19] [%]	viability, T/C [20] [%]	further results
CCN1CCN(Cc2ccc(Nc3ncc(F)c(-c4cc(F)c5nc(C)n(C(C)C)c5c4)n3)nc2)CC1 + C=CC(=O)N1CCN(c2nc(=O)n(-c3c(C)ccnc3C(C)C)c3nc(-c4c(O)cccc4F)c(F)cc23)C(C)C1	58.1	85.6	108	11.3	< 3.16	54.4	45.6	30.5	22.1	64.4	47.6	35.3	26.7	66.2	50.4	37.2	22.6	45	34.6	28.9	viability, T/C (second compound 0.1 µM, first compound 0.00316 µM): 95%; viability, T/C (second compound 0.1 µM, first compound 0.01 µM): 78%; viability, T/C (second compound 0.316 µM, first compound 0.00316 µM): 95.7%; viability, T/C (second compound 0.316 µM, first compound 0.01 µM): 82.4%; viability, T/C (second compound 1 µM, first compound 0.00316 µM): 96.8%; viability, T/C (second compound 1 µM, first compound 0.01 µM): 82%; viability, T/C (second compound 3.16 µM, first compound 0.00316 µM): 57.7%; viability, T/C (second compound 3.16 µM, first compound 0.01 µM): 50%; viability, T/C [21]: 21.2%; viability, T/C (second compound 10 µM, first compound 0.00316 µM): 18.5%; viability, T/C (second compound 10 µM, first compound 0.01 µM): 23.9%; viability, T/C [22]: 23.7%; viability, T/C [23]: 22.9%; viability, T/C [24]: 20.4%; viability, T/C [25]: 6.06%
CCNC(=O)CC1N=C(c2ccc(Cl)cc2)c2cc(OC)ccc2-n2c(C)nnc21 (configuration not stated)																					viability, T/C (compound 0.0316 µM): 97.6% and 105% (2×); viability, T/C (compound 0.1 µM): 101% and 90.5% and 99.3%; viability, T/C (compound 0.316 µM): 68.9% and 65.5% and 77.4%; viability, T/C (compound 1 µM): 61.3% and 61.7% and 65.3%; viability, T/C (compound 3.16 µM): 55.7% and 53.3% and 49.1%; viability, T/C (compound 10 µM): 47.1% and 38.7% and 48.1%; IC50 (curve of compound): > 10000 nM and 2930 nM and 4760 nM
COc1cc(Nc2ncc3c(n2)-c2ccc(Cl)cc2C(c2c(F)cccc2OC)=NC3)ccc1C(=O)O + COc1cc2nc(C)nc(NC(C)c3cc(N)cc(C(F)(F)F)c3)c2cc1OC1CCOC1	< 31.6	< 31.6	< 31.6	< 31.6	< 31.6	28.8	23.7	27.9	25.8	26.3	21.9	27.4	22.1	25	24.5	25.6	23.4	23.8	20.5	20.8	viability, T/C (second compound 0.1 µM, first compound 3.16 µM): 19.4%; viability, T/C (second compound 0.1 µM, first compound 10 µM): 16.9%; viability, T/C (second compound 0.316 µM, first compound 3.16 µM): 22.3%; viability, T/C (second compound 0.316 µM, first compound 10 µM): 14.9%; viability, T/C (second compound 1 µM, first compound 3.16 µM): 18.5%; viability, T/C (second compound 1 µM, first compound 10 µM): 13.6%; viability, T/C [21]: 22.1%; viability, T/C (second compound 3.16 µM, first compound 3.16 µM): 18.5%; viability, T/C (second compound 3.16 µM, first compound 10 µM): 14%; viability, T/C [22]: 15.1%; viability, T/C [23]: 11.2%; viability, T/C [24]: 11.6%; viability, T/C [25]: 11.9%; viability, T/C (second compound 10 µM, first compound 3.16 µM): 13.6%; viability, T/C (second compound 10 µM, first compound 10 µM): 12.3%
